Laboratory results: patent US20250388565A1, “ESTROGEN RECEPTOR ALPHA DEGRADERS AND METHODS OF USE THEREOF” (Relay Therapeutics, Inc., priority 2022, published 2025)

Molecular target: T1, ERα protein (HiBiT-tagged) in ESR1_HiBiT KI MCF7 cells (Homo sapiens, UniProt P03372)
T1 sequence (P03372 1-595): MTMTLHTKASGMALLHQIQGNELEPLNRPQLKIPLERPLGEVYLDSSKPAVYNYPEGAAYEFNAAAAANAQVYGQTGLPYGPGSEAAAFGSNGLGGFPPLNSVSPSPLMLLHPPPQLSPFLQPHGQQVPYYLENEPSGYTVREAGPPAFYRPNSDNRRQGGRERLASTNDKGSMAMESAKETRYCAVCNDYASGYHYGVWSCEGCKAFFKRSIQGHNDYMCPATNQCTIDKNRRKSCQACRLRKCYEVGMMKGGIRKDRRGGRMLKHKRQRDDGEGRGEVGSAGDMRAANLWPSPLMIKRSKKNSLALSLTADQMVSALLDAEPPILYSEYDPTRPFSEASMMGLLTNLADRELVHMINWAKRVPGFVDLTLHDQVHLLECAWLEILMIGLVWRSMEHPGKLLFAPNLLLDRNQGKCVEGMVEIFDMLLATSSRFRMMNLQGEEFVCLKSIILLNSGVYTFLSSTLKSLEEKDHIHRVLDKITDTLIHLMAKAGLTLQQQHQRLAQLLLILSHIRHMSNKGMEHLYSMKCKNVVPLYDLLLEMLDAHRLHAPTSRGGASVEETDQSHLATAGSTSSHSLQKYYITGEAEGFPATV
Assay: Nano Glo HiBiT Lytic Degradation Assay
Format: cell-based
Settings: 6 hours with compound, 14-point dose response 1:3, bell-shape curve fit, half-maximal effect of first Hill model, read-out: MCF7 ESR1 HiBiT - (DC50)
Outline: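 Lytic Nano-Glo HiBiT luminescence quantified ERα remaining after a 6 h, 37° C compound exposure of MCF7 cells carrying endogenous HiBiT-tagged ESR1. Dosing used 14 threefold dilutions from a 10 mM DMSO stock (0.1% DMSO final), run in duplicate. Signals were corrected for cell-free background and expressed relative to DMSO, and DC50 came from a bell-shaped curve fit (first Hill model half-maximum).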

**Q.** `Cc1ccc([C@H]2OCc3cc(O)ccc3[C@H]2c2ccc(N3CCC(CN4CCN(c5ccc6c(c5)CN([C@H]5CCC(=O)NC5=O)C6=O)CC4)CC3)cc2)cc1` [Compound I-354, (S)-3-(5-(4-((1-(4-((3S,4R)-7-hydroxy-3-(p-tolyl)isochroman-4-yl)phenyl)piperidin-4-yl)methyl)piperazin-1-yl)-1-oxoisoindolin-2-yl)piperidine-2,6-dione] was tested. Which DC50 did it give?
**A.** 0.3 nM

**Q.** For `O=C1CC[C@H](N2Cc3cc(N4CCN(CC5CCN(c6ccc([C@@H]7c8ccc(O)cc8CO[C@@]78CCc7ccccc78)cc6)CC5)CC4)ccc3C2=O)C(=O)N1` [Compound I-77, (S)-3-(5-(4-((1-(4-((1S,4′R)-7′-hydroxy-2,3-dihydrospiro[indene-1,3′-isochroman]-4′-yl)phenyl)piperidin-4-yl)methyl)piperazin-1-yl)-1-oxoisoindolin-2-yl)piperidine-2,6-dione], which DC50 is on record?
**A.** 0.2 nM

**Q.** With `O=C1CC[C@H](N2Cc3cc(N4CCN(CC5CCN(c6ccc([C@@H]7c8ccc(O)cc8CC[C@@H]7c7cccc(F)c7)cc6)CC5)CC4)ccc3C2=O)C(=O)N1` (single isomer, unassigned) [II-26] as the molecule, how does the DC50 read?
**A.** ≥ 10000 nM

**Q.** `C[C@@H]1CN(c2ccc3c(c2)CN([C@H]2CCC(=O)NC2=O)C3=O)CCN1CC1CCN(c2ccc([C@H]3c4ccc(O)cc4CC[C@H]3c3ccccc3)cc2)CC1` (single isomer, unassigned) [II-15] was tested. Which DC50 did it give?
**A.** ≥ 10000 nM

**Q.** `C[C@@H]1OC2(CCCCC2)[C@H](c2ccc(N3CCC(CN4CCN(c5ccc6c(c5)CN([C@H]5CCC(=O)NC5=O)C6=O)CC4)CC3)cc2)c2ccc(O)cc21` [Compound I-83, (S)-3-(5-(4-((1-(4-((1′S,4′R)-7′-hydroxy-1′-methylspiro[cyclohexane-1,3′-isochroman]-4′-yl)phenyl)piperidin-4-yl)methyl)piperazin-1-yl)-1-oxoisoindolin-2-yl)piperidine-2,6-dione] was tested. Which DC50 did it give?
**A.** 1 nM

**Q.** How did the DC50 turn out when `O=C1CC[C@H](c2ccc(N3CCC4(CCN(CC5CCN(c6ccc([C@@H]7c8ccc(O)cc8CC[C@@H]7c7ccccc7)cc6)CC5)C4)CC3)cc2)C(=O)N1` (single isomer, unassigned) [Compound I-283] was run?
**A.** 5 nM

**Q.** `Cc1cc([C@H]2OCc3cc(O)ccc3[C@H]2c2ccc(N3CCC(CN4CCN(c5ccc6c(c5)CN([C@H]5CCC(=O)NC5=O)C6=O)CC4)CC3)cc2)ccc1F` [Compound I-375, (S)-3-(5-(4-((1-(4-((3S,4R)-3-(4-fluoro-3-methylphenyl)-7-hydroxyisochroman-4-yl)phenyl)piperidin-4-yl)methyl)piperazin-1-yl)-1-oxoisoindolin-2-yl)piperidine-2,6-dione] was tested. Which DC50 did it give?
**A.** 0.89 nM

**Q.** How did the DC50 turn out when `O=C1CC[C@H](N2Cc3cc(N4CCN(C[C@H]5CC[C@H](c6ccc([C@@H]7c8ccc(O)cc8CC[C@@H]7c7ccccc7)cc6)CC5)CC4)ccc3C2=O)C(=O)N1` [II-52] was run?
**A.** 0.15 nM

**Q.** For `C[C@H]1C[C@@H](c2ccccc2)[C@@H](c2ccc(N3CCC(CN4CCN(c5ccc6c(c5)CN([C@H]5CCC(=O)NC5=O)C6=O)CC4)CC3)cc2)c2ccc(O)cc21` (single isomer, unassigned) [Compound I-331], which DC50 is on record?
**A.** ≥ 10000 nM

**Q.** For `Cn1nc([C@@H]2CCC(=O)NC2=O)c2ccc(N3CCN(CC4CCN(c5ccc([C@@H]6c7ccc(O)cc7CO[C@@H]6c6ccccc6)cc5)CC4)CC3)cc21` (single isomer, unassigned) [Compound I-395], which DC50 is on record?
**A.** 0.28 nM

**Q.** `O=C1CC[C@H](N2Cc3cc(N4CCN(CC5CCN(c6ccc([C@@H]7c8ccc(O)cc8CC[C@@H]7c7ccc(C(F)(F)F)cc7)cc6)CC5)CC4)ccc3C2=O)C(=O)N1` (single isomer, unassigned) [II-40] was tested. Which DC50 did it give?
**A.** ≥ 10000 nM

**Q.** For `O=C1CC[C@H](N2Cc3cc(N4CCN(C[C@H]5CCCN(c6ccc([C@@H]7c8ccc(O)cc8CC[C@@H]7c7ccccc7)cc6)C5)CC4)ccc3C2=O)C(=O)N1` (single isomer, unassigned) [II-22], which DC50 is on record?
**A.** 5 nM

**Q.** `O=C1CCC(N2Cc3cc(N4CCN(CC5CCN(c6ccc([C@@H]7c8ccc(O)cc8CC[C@@H]7c7ccccc7)cc6)CC5)CC4)c(F)cc3C2=O)C(=O)N1` (single isomer, unassigned) [II-38] was tested. Which DC50 did it give?
**A.** 1 nM

**Q.** With `O=C1CC[C@H](N2Cc3cc(N4CCN(CC5CCN(c6ccc([C@H]7c8ccc(O)cc8CC[C@H]7c7ccc8c(c7)CCC8)cc6)CC5)CC4)ccc3C2=O)C(=O)N1` (single isomer, unassigned) [Compound I-413] as the molecule, how does the DC50 read?
**A.** 0.27 nM

**Q.** How did the DC50 turn out when `C[C@H]1OC2(CCCCC2)[C@H](c2ccc(N3CCC(CN4CCN(c5ccc6c(c5)CN([C@H]5CCC(=O)NC5=O)C6=O)CC4)CC3)cc2)c2ccc(O)cc21` (single isomer, unassigned) [Compound I-269] was run?
**A.** 6 nM

**Q.** For `O=C1CC[C@H](N2Cc3cc(N4CCN(CC5CCN(c6ccc([C@@H]7c8ccc(O)cc8CC[C@@H]7c7ccc8c(c7)CCCC8)cc6)CC5)CC4)ccc3C2=O)C(=O)N1` (single isomer, unassigned) [Compound I-59], which DC50 is on record?
**A.** 906 nM

**Q.** How did the DC50 turn out when `O=C1CC[C@H](N2Cc3cc(N4CCN(CC5CCN(c6ccc([C@@H]7c8ccc(O)cc8CC[C@@H]7c7cccc8c7CCC8)cc6)CC5)CC4)ccc3C2=O)C(=O)N1` (single isomer, unassigned) [Compound I-410] was run?
**A.** ≥ 10000 nM

**Q.** For `O=C1CC[C@H](N2Cc3cc(N4CCN(CC5CCN(c6ccc([C@H]7c8ccc(O)cc8CO[C@H]7c7ccccc7)cc6)CC5)CC4)ccc3C2=O)C(=O)N1` [Compound I-4, (S)-3-(5-(4-((1-(4-((3R,4S)-7-hydroxy-3-phenylisochroman-4-yl)phenyl)piperidin-4-yl)methyl)piperazin-1-yl)-1-oxoisoindolin-2-yl)piperidine-2,6-dione], which DC50 is on record?
**A.** 59.4 nM

**Q.** How did the DC50 turn out when `O=C1CC[C@H](N2Cc3cc(N4CCN(CC5CCN(c6ccc([C@H]7c8ccc(O)cc8CC[C@H]7c7ccccc7)c(F)c6)CC5)CC4)ccc3C2=O)C(=O)N1` [II-85] was run?
**A.** 1090 nM

**Q.** With `Cc1ccc([C@H]2CC(F)(F)c3cc(O)ccc3[C@H]2c2ccc(N3CCC(CN4CCN(c5ccc6c(c5)CN([C@H]5CCC(=O)NC5=O)C6=O)CC4)CC3)cc2)cc1` (single isomer, unassigned) [Compound I-320, (S)-3-(5-(4-((1-(4-((1*S, 2*R)-4,4-difluoro-6-hydroxy-2-(p-tolyl)-1,2,3,4-tetrahydronaphthalen-1-yl)phenyl)piperidin-4-yl)methyl)piperazin-1-yl)-1-oxoisoindolin-2-yl)piperidine-2,6-dione] as the molecule, how does the DC50 read?
**A.** 0.006 nM

**Q.** Which DC50 does the source give for `O=C1CC[C@H](N2Cc3cc(N4CCN(CC5CCN(c6ccc([C@H]7c8ccc(O)cc8CC[C@H]7C7CCCCCC7)cc6)CC5)CC4)ccc3C2=O)C(=O)N1` [Compound I-134, (3S)-3-[5-[4-[[1-[4-[(1S,2S)-2-cycloheptyl-6-hydroxy-tetralin-1-yl]phenyl]-4-piperidyl]methyl]piperazin-1-yl]-1-oxo-isoindolin-2-yl]piperidine-2,6-dione] here?
**A.** ≥ 10000 nM

**Q.** For `O=C1CC[C@H](N2Cc3cc(N4CCN(CC5CCN(c6ccc([C@@H]7c8ccc(O)cc8CO[C@@]78CCCc7ccccc78)cc6)CC5)CC4)ccc3C2=O)C(=O)N1` [Compound I-76, (S)-3-(5-(4-((1-(4-((3S,4R)-7-hydroxy-3′,4′-dihydro-2′H-spiro[isochromane-3,1′-naphthalen]-4-yl)phenyl)piperidin-4-yl)methyl)piperazin-1-yl)-1-oxoisoindolin-2-yl)piperidine-2,6-dione], which DC50 is on record?
**A.** 0.21 nM

**Q.** For `O=C1CC[C@H](N2Cc3cc(N4CCN(CC5CCN(c6ccc([C@@H]7c8ccc(O)cc8CO[C@@H]7c7ccc(C(F)(F)F)cc7)cc6)CC5)CC4)ccc3C2=O)C(=O)N1` [Compound I-349], which DC50 is on record?
**A.** 0.39 nM

**Q.** `O=C1CC[C@H](N2Cc3cc(N4CCN(CC5CCN(c6ccc([C@@H]7c8ccc(O)cc8CC[C@@]78CCCc7ccccc78)cc6)CC5)CC4)ccc3C2=O)C(=O)N1` [Compound I-264, (S)-3-(5-(4-((1-(4-((1S,1′S)-6′-hydroxy-3,3′,4,4′-tetrahydro-1′H,2H-1,2′-spirobi[naphthalen]′-yl)phenyl)piperidin-4-yl)methyl)piperazin-1-yl)-1-oxoisoindolin-2-yl)piperidine-2,6-dione] was tested. Which DC50 did it give?
**A.** 0.43 nM

**Q.** With `O=C1CC[C@H](N2Cc3cc(N4CCN(CC5CCN(c6ccc([C@H]7c8ccc(O)cc8CC[C@H]7c7ccc(F)cc7)cc6)CC5)CC4)ccc3C2=O)C(=O)N1` [II-101] as the molecule, how does the DC50 read?
**A.** ≥ 10000 nM

**Q.** How did the DC50 turn out when `Cc1ccc(F)cc1[C@H]1OCc2cc(O)ccc2[C@H]1c1ccc(N2CCC(CN3CCN(c4ccc5c(c4)CN([C@H]4CCC(=O)NC4=O)C5=O)CC3)CC2)cc1` (single isomer, unassigned) [Compound I-357] was run?
**A.** 0.51 nM

**Q.** How did the DC50 turn out when `O=C1CC[C@H](N2Cc3cc(N4CCN(CC5CCN(c6ccc([C@@H]7c8ccc(O)cc8CC[C@@H]7c7ccncc7)cc6)CC5)CC4)ccc3C2=O)C(=O)N1` [Compound I-132, (S)-3-(5-(4-((1-(4-((1R,2S)-6-hydroxy-2-(pyridin-4-yl)-1,2,3,4-tetrahydronaphthalen-1-yl)phenyl)piperidin-4-yl)methyl)piperazin-1-yl)-1-oxoisoindolin-2-yl)piperidine-2,6-dione] was run?
**A.** 0.0491 nM

**Q.** Which DC50 does the source give for `COc1cc(N2CCC(CN3CCN(c4ccc5c(c4)CN([C@H]4CCC(=O)NC4=O)C5=O)CC3)CC2)c(-c2ccccc2)cc1[C@H]1CCC(F)(F)c2cc(O)ccc21` [Compound I-406] here?
**A.** 25 nM
